Experimental data reported in article PMC4154066 (Chemical research in toxicology, 2013).
Read-outs that look alike come from different tables or passages of the source.

Test system: HepG2 cells
Assay: Oxygen consumption rate
Assay type: cell-based, Human
Conditions: for Relative percentage OCR 30 Sec: HepG2, 30 sec after compound at its MMP IC50; for Relative percentage OCR 30 Sec / Relative percentage OCR 1 h: basal OCR = 100%, mean ± SD; for Relative percentage OCR 1 h: HepG2, 1 h after compound at its MMP IC50
[1] = HepG2, compound at its MMP IC50, 30 sec and 1 h, then FCCP

| SMILES | Relative percentage OCR 30 Sec | Relative percentage OCR 1 h | Effect on OCR / FCCP-uncoupled OCR (in words) | Effect on OCR / FCCP-uncoupled OCR (in words) [1] |
| --- | --- | --- | --- | --- |
| CCCCCCCCCc1ccc(O)cc1 [p -n -Nonylphenol] | 116.61 ± 6.28% | 131.32 ± 0.61% |  |  |
| CC/C(=C(/CC)c1ccc(O)cc1)c1ccc(O)cc1 [Diethylstilbestrol [DES], Diethylstilbestrol, reference compound] |  |  | depressed both basal and FCCP uncoupled rates |  |
| Oc1ccc(Cl)cc1Cc1cc(Cl)ccc1O [2,2'-Methylenebis-(4-chlorophenol)] | 170.42 ± 33.35% | 168.27 ± 1.85% |  |  |
| Clc1ccc(C(c2ccccc2Cl)C(Cl)Cl)cc1 (centres unmarked) [o,p'-DDD (Mitotane), 1,1-dichloro-2-(o-chlorophenyl)-2-(p-chlorophenyl) ethane, reference compound] | 102.84 ± 1.36% | 114.22 ± 0.42% |  |  |
| CC1=C(/C=C/C(C)=C/C=C/C(C)=C/C(=O)Nc2ccc(O)cc2)C(C)(C)CCC1 [4-Hydroxyphenyl retinamide] | 96.31 ± 1.42% | 98.83 ± 0.42% |  | significantly suppressed the FCCP uncoupled rates |
| Cc1cc2nc3c(=O)[nH]c(=O)nc-3n(C[C@H](O)[C@H](O)[C@H](O)CO)c2cc1C [Riboflavin] | 103.69 ± 0.37% | 115.15 ± 0.4% |  |  |
| Oc1ccc(/C=C/c2cc(O)cc(O)c2)cc1 [Resveratrol] | 100.5 ± 0.73% | 110.92 ± 0.36% |  |  |
| Nc1cccc2c(N)cccc12 [1,5-Naphthalenediamine] | 104.68 ± 1.3% | 115.87 ± 0.7% |  |  |
| Nc1ccc2c(c1)C(=O)c1ccccc1C2=O [2-Aminoanthraquinone] | 97.54 ± 0.63% | 106.44 ± 0.61% |  |  |
| CN(C)c1ccc(N=NS(=O)(=O)O)cc1 [Formulated fenaminosulf (Dexon), fenaminosulf] | 102.48 ± 0.9% | 110.45 ± 0.28% |  |  |
| CC(C)(c1ccccc1)c1ccc(O)cc1 [4-Cumylphenol] | 111.24 ± 4.51% | 121.31 ± 0.33% |  |  |
| Oc1c(Cl)cc(Cl)c(Cl)c1Cc1c(O)c(Cl)cc(Cl)c1Cl [Hexachlorophene] | 201.72 ± 51.19% | 175.25 ± 1.35% |  |  |
| COc1cc(/C=C/C(=O)CC(=O)/C=C/c2ccc(O)c(OC)c2)ccc1O [Curcumin] | 86 ± 3.54% | 94.85 ± 0.67% |  | significantly suppressed the FCCP uncoupled rates |
| Oc1cc(Cl)c(Cl)c(Cl)c1 [3,4,5-Trichlorophenol] | 163.21 ± 18.34% | 173.49 ± 1.32% |  |  |
| c1ccc(Nc2ccc3ccccc3c2)cc1 [N-Phenyl-2-naphthylamine] | 103.45 ± 2.35% | 120.42 ± 0.94% |  |  |
| O=C=Nc1ccc(Cl)c(Cl)c1 [3,4-Dichlorophenyl isocyanate] | 102.45 ± 10.76% | 236.03 ± 4.84% |  |  |
| Oc1ccc(Cl)cc1Cc1ccccc1 [o-Benzyl-p-chlorophenol] | 123.51 ± 12.67% | 126.12 ± 0.47% |  |  |
| Nc1ccc(O)cc1 [p-Aminophenol] | 100.52 ± 5.81% | 158.18 ± 3.31% |  |  |
| O=c1c(-c2ccc(O)cc2)coc2cc(O)cc(O)c12 [Genistein (4',5,7-Trihydroxyisoflavone), 4',5,7-Trihydroxyisoflavone] | 90.18 ± 3.05% | 105.21 ± 0.19% |  |  |
| CC(=O)Oc1ccccc1C(=O)Nc1ncc([N+](=O)[O-])s1 [Nitazoxanide, reference compound] | 277.15 ± 15.64% | 199.34 ± 2.37% |  |  |
